Source: patent publication US9668482B1, “Fused heterocyclic compound and pest control application thereof” (Sumitomo Chemical Company, Limited, priority 2014, dated 2017)

Legend:
Type in all cases: in vivo
[1] = tested on: American cockroaches (Periplaneta americana); assay: Test Example 14: American cockroach, topical application, comparison with compound 112; conditions: 1.0 μL topical, 7 days after treatment
Experimental: The compound 112 (hereinafter, referred to as “compound 112”), described in Table 40 of WO 2013/018928 pamphlet, and the present compound 1 were dissolved in acetone and then the acetone solutions of the designated concentration were prepared.
(§1) A droplet (1.0 μL) of the solution was topically applied onto the ventral prothorax of each female American cockroaches (Periplaneta americana). Then, the treated individuals were transferred to a clean polyethylene cup (bottom diameter: 12 cm, height: 10 cm) with some food and water. Each treatment consisted of 2 replications of 5 roaches/polyethylene cup. The mortality was determined on 7 days after treatment at 25° C. Mortality of insects (%)=(Number of dead insects/Number of tested insects)×100

[2] = tested on: housefly (Musca domestica); assay: Test Example 8: housefly, treated filter paper with sucrose bait; conditions: 500 ppm, 0.7 mL on filter paper, female adults, after 24 hours
Experimental: Each of the present compounds 1 to 3, 5, 7, 8, 11, 13 to 16, 21 and 22 was made to a formulation according to the Formulation example 5 and was then diluted with water so that the active ingredient concentration was set to 500 ppm to prepare the diluted solution. The bottom of the polyethylene cup having 5.5 cm diameter was matted with the same size of a filter paper, and 0.7 mL of the diluted solution was added dropwise to the filter paper and 30 mg sucrose as bait was placed in the cup uniformly. Ten (10) heads of female adult housefly (Musca domestica) were released into the polyethylene cup and the cup was covered with the lid. After 24 hours, the life and death of housefly was examined and the number of died insects was counted and the mortality of insects was calculated by the following equation. Mortality of insects (%)=(Number of dead insects/Number of tested insects)×100

[3] = tested on: American cockroaches (Periplaneta americana); assay: Test Example 13: American cockroach, topical application of 10% w/v acetone solution; conditions: 1.0 μL topical on ventral prothorax, females, 7 days, 25° C.
Experimental: The present compounds 1 and 2 were dissolved in acetone and then the 10% w/v acetone solutions were prepared.
as §1, with “cockroaches/polyethylene” for “roaches/polyethylene”

[4] = tested on: German cockroach (Blattella germanica); assay: Test Example 9: German cockroach, treated filter paper with sucrose bait; conditions: 500 ppm, 0.7 mL on filter paper, male adults, after 6 days
Experimental: Each of the present compounds 1 to 3, 5, 7, and 13 was made to a formulation according to the Formulation example 5 and was then diluted with water so that the active ingredient concentration was set to 500 ppm to prepare the diluted solution. The bottom of the polyethylene cup having 5.5 cm diameter was matted with the same size of a filter paper, and 0.7 mL of the diluted solution was added dropwise to the filter paper and 30 mg sucrose as bait was placed in the cup uniformly. Two (2) heads of male adult German cockroach (Blattella germanica) were released into the polyethylene cup and the cup was covered with the lid. After 6 days, the life and death of German cockroach was examined and the number of died insects was counted and the mortality of insects was calculated by the following equation. Mortality of insects (%)=(Number of dead insects/Number of tested insects)×100

Structure (SMILES)	Mortality of insects [2] [%]	Mortality of insects [4] [%]	other results
CCS(=O)(=O)c1cc(-c2ncccn2)cnc1-c1nc2cc(C(F)(F)F)cnc2n1C [Compound 112]			Morality (%) ([1]; concentration 2 w/v%): 70%; Morality (%) ([1]; concentration 4 w/v%): 100%
CCS(=O)(=O)c1ccc(-n2cnc(S(C)(=O)=O)n2)nc1-c1nc2cc(C(F)(F)F)cnc2n1C [compound 8]	100		
CCS(=O)(=O)c1ccc(-n2cnc(C(=O)OC)n2)nc1-c1nc2cc(C(F)(F)F)cnc2n1C [compound 11]	100		
CCS(=O)(=O)c1ccc(-n2cnc(Cl)n2)nc1-c1nc2cc(C(F)(F)F)cnc2n1C [compound 2]			Mortality of insects [3]: 100%
CC[S+]([O-])c1ccc(-n2cnc(C(F)(F)F)n2)nc1-c1nc2cc(C(F)(F)F)cnc2n1C (stereo not drawn) [compound 21]	100		
CCSc1ccc(-n2cncn2)nc1-c1nc2cc(C(F)(F)F)cnc2n1C [compound 13]		100	
CC[S+]([O-])c1ccc(-n2cnc(SC)n2)nc1-c1nc2cc(C(F)(F)F)cnc2n1C (stereo not drawn) [compound 22]	100		
CCS(=O)(=O)c1ccc(-n2cnc(SC)n2)nc1-c1nc2cc(C(F)(F)F)cnc2n1C [compound 7]	100	100	
CCS(=O)(=O)c1ccc(-n2cnc(C(F)(F)F)n2)nc1-c1nc2cc(C(F)(F)F)cnc2n1C [compound 5]	100	100	
